Key:
Opiate = conditions: cited from earlier work
s Cholinergic = conditions: cited from earlier work
[1] = Metabolites of DVS observed by LC/MS in dog plasma, urine and feces; assay type: in vivo, beagle dogs; conditions: P: plasma, U: urine, F: feces
Experimental: An Agilent Model 1100 HPLC system (Agilent Technologies, Wilmington, Del.) including an autosampler and diode array UV detector was used for LC/MS analysis. The UV detector was set to monitor 200 to 400 nm. Separations were accomplished on a 5 micron Phenomenex Luna C18(2) column, 150×2 mm (Phenomenex). The column temperature was 25° C. For selected LC/MS analyses, radiochromatograms were acquired using a β-RAM model 3 radioactivity flow detector (IN/US Systems Inc., Tampa, Fla.) equipped with a solid scintillation flow cell.
The mass spectrometers used for metabolite characterization were a Micromass Q-TOF-2 quadrupole time-of-flight hybrid mass spectrometer (Micromass, Inc., Beverly, Mass.) and a Finnigan LCQ Deca ion trap mass spectrometer (ThermoFinnigan, San Jose, Calif.). The mass spectrometer was equipped with an electrospray ionization (ESI) interface and operated in the positive ionization mode.

[2] = Metabolites of DVS observed by LC/MS in rat plasma, urine and feces; assay type: in vivo, Sprague Dawley rats; conditions: P: plasma, U: urine, F: feces
Experimental: An Agilent Model 1100 HPLC system (Agilent Technologies, Wilmington, Del.) including an autosampler and diode array UV detector was used for LC/MS analysis. The UV detector was set to monitor 200 to 400 nm. Separations were accomplished on a 5 micron Phenomenex Luna C18(2) column, 150×2 mm (Phenomenex). The column temperature was 25° C. The mobile phases and gradient program were as follows.
The mass spectrometer used for metabolite characterization was a Micromass Q-TOF-2 quadrupole time-of-flight hybrid mass spectrometer (Micromass, Inc., Beverly, Mass.). The mass spectrometer was equipped with an electrospray ionization (ESI) interface and operated in the positive ionization mode.

[3] = test system: Reserpine-Induce Hypothermia; conditions: cited from earlier work
Histamine Hi = Histamine Hi (Homo sapiens, UniProt P35367); conditions: cited from earlier work
Adrenergic a = conditions: cited from earlier work
D2 = D2 (Homo sapiens, UniProt P14416); conditions: cited from earlier work
dog liver microsomes = test: Glucuronidation in dog liver microsomes; assay type: in vitro ADME; conditions: dog liver microsomes 1 mg/mL, 100 μM, 30 minutes
Experimental: To confirm the site of glucuronidation of DVS, incubations were performed using dog liver microsomes. These incubations compared the glucuronidation of DVS to venlafaxine. […] Reactions were initiated by the addition of UDPGA (final concentration 1 mM). An additional set of incubations was performed for venlafaxine with UDPGA and an NADPH generating system. […] Reactions were stopped by the addition of 500 μL of acetonitrile and processed as described above. Samples were analyzed by LC/MS.

histaminergic receptors = conditions: in vitro; cited from earlier work
monoamine oxidase = conditions: cited from earlier work
adrenergic receptors = conditions: in vitro; cited from earlier work

Sequence of D2 (P14416 whole entry): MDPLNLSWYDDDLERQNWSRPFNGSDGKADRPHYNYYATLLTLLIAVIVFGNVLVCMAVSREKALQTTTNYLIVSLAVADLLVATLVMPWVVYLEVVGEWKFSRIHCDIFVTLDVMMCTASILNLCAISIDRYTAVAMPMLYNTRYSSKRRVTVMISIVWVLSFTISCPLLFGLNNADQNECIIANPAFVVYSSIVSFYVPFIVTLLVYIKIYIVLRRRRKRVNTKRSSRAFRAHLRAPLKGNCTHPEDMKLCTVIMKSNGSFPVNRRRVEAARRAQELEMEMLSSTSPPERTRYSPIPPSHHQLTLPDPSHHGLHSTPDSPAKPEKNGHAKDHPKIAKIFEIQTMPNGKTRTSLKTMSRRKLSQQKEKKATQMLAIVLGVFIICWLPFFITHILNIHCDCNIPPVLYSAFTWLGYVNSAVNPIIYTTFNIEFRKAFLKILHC
Sequence of Histamine Hi (P35367 whole entry): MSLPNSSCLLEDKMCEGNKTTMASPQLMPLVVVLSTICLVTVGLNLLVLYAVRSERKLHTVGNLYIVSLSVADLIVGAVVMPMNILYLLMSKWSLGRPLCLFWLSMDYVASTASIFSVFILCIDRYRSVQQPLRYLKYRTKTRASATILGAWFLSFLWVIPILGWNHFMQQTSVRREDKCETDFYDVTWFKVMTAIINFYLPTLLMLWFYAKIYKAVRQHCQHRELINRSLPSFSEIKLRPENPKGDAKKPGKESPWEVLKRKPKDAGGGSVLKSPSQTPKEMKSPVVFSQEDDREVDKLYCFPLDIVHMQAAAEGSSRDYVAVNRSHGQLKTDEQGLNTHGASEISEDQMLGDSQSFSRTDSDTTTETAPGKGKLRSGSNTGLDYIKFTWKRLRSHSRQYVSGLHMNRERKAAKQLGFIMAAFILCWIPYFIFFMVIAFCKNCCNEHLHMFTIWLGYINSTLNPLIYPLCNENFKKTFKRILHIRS

SMILES | Affinity for Various Neuroreceptors (% inhibition at 1 uM): Opiate (Opiate) | Affinity for Various Neuroreceptors (% inhibition at 1 uM): s Cholinergic (s Cholinergic) | Matrix (metabolite observed by LC/MS) [1] | Matrix (metabolite observed by LC/MS) [2] | Reversal of Reserpine-Induce Hypothermia (minimum effect; mg&g i.p.) [3] | Affinity for Various Neuroreceptors (% inhibition at 1 uM): Histamine Hi (Histamine Hi) | Affinity for Various Neuroreceptors (% inhibition at 1 uM): Adrenergic a (Adrenergic a) | Affinity for Various Neuroreceptors (% inhibition at 1 uM): D2 (D2) | glucuronidation (dog liver microsomes; in the presence of both UDPGA and NADPH) | glucuronidation (dog liver microsomes; in the presence of only UDPGA) | affinity for histaminergic receptors (histaminergic receptors) | inhibitory activity on monoamine oxidase (monoamine oxidase) | affinity for adrenergic receptors (adrenergic receptors)
CN(C)CC(c1ccc(O)cc1)C1(O)CCCCC1 (stereo not shown) [O-DESMETHYLVENLAFAXINE, 1-[2-(dimethylamino)-1-(4-phenol)ethyl]-cyclohexanol] | 7% | 7% | P, U, F | P, U, F | 3 mg&g | 0% | 0% | 6% | – | – | – | – | –
COc1ccc(C(CN(C)C)C2(O)CCCCC2)cc1 (stereo not shown) [venlafaxine, 1-[2-(dimethylamino)-1-(4-methoxyphenyl)ethyl]cyclohexanol] | – | – | – | – | – | – | – | – | observed | not | virtually no affinity | no inhibitory activity | virtually no affinity
